Data reported in patent US10758527B2, “Opioid agonist antagonist combinations” (Alkermes Pharma Ireland Limited, priority 2011, dated 2020).

Assays:
[1] = system: dopamine efflux in the Nucleus Accumbens shell (NAc-sh); assay: In vivo microdialysis of dopamine efflux in free-moving rats; settings: antagonist given with Buprenorphine (0.1 mg/kg, SC)
Procedure: Experiments were conducted in rats to assess the ability of opioid antagonists to modulate buprenorphine-induced dopamine efflux in the Nucleus Accumbens shell (NAc-sh) region of the mesolimbic region of the brain. Male rats weighing 300-400 grams were used for all studies. To measure the efflux of dopamine in the NAc-sh an in vivo microdialysis method was utilized in free-moving rats. This method allows the sampling of extracellular cerebrospinal fluid (C SF) from specific brain regions of interest and measurement of neurotransmitter concentrations following the analysis of sampled dialysate with HPLC-EC.
Each rat underwent surgical implantation of microdialysis guide cannula (CMA 12, CMA Microdialysis) to guide the insertion of the microdialysis probe later on. Rats were anesthetized with a mixture of ketamine/xylazine (80/6 mg/kg IP) and placed in a stereotaxic apparatus. […] Guide cannula were capped with dummy probes until microdialysis probe insertion. On the day prior to experimentation (3-4 days post-surgery), animals were weighed to determine appropriate dose for test articles. A microdialysis probe (CMA 12, 2 mm membrane, CMA microdialysis) was then inserted through the guide cannula. […] Each sample was analyzed via HPLC-EC to determine neurotransmitter concentration of dopamine based upon a six-point standard curve.

[2] = system: Wistar-Kyoto (WKY) rats; assay: Forced swim test (FST); settings: WKY rats treated with Buprenorphine (0.1 mg/kg)
Procedure: In the “forced swim test” (FST) rats are placed in a tank of water, from which they cannot escape, on two successive days; 15 minutes on the first day and 5 minutes on the second day. While in the water they will swim, attempt to climb the container wall or become “immobile” floating in the water. The total time rats are immobility increases between the first and second day. […] At 24 h after the first swim, rats were retested for 5 minutes. Videos were scored manually for immobility time (in seconds) using a manual stop watch in 60 second intervals by a rater blinded to the treatment groups. A rat was judged to be immobile if it was making only movements necessary to keep its head above water.

SMILES | effect on buprenorphine-induced NAc-sh dopamine efflux [1] | immobility in forced swim test with increased concentrations of Compound-1 [2]
NC(=O)c1ccc2c(c1O)[C@]13CCN(CC4CC4)[C@H](C2)[C@]1(O)CCC(=O)C3 [Compound-1] | Reduction in the efflux of dopamine | Increase in immobility
C=C1CC[C@@]2(O)[C@H]3Cc4ccc(C(N)=O)c(O)c4[C@@]2(CCN3CC2CC2)C1 [Compound-10] | Reduction in the efflux of dopamine | 
C=C1CC[C@@]2(O)[C@H]3Cc4ccc(O)c5c4[C@@]2(CCN3CC2CC2)[C@H]1O5 [Nalmefene, nalmefene, reference compound] | Reduction in the efflux of dopamine | 
O=C1CC[C@@]2(O)[C@H]3Cc4ccc(O)c5c4[C@@]2(CCN3CC2CC2)[C@H]1O5 [Naltrexone, naltrexone, reference compound] | Reduction in the efflux of dopamine | 
